In patent publication US10077261B2, “Imidazolin-5-one derivative useful as FASN inhibitors for the treatment of cancer” (Janssen Pharmaceutica NV, priority 2012, dated 2018):

Target: T1, hFASN enzyme (full length) (Homo sapiens, UniProt P49327)
T1 construct: 10 μL hFASN enzyme (full length, 300 ng, purified in house); made in house
Test: Fatty Acid Synthase (FASN) inhibition scintillation proximity assay
Type: biochemical
Conditions: for inhibition at 10 µM: read-out: Human FASN % inhibition @ 10 μM, 10 μM test compound; for IC50: read-out: Human FASN pIC50 (converted)
Description: In this assay, inhibition of FASN activity is measured using ^3H-acetyl-CoA and malonyl-CoA as substrates. ^3H-Acetyl CoA is converted to ^3H-palmitate through a series of reactions by the FASN protein, which contains 7 functional domains and carries out 7 enzymatic reactions to ultimately produce ^3H-palmitate. The assay principle is based upon the fact that ^3H-acetyl-CoA is hydrophilic and the end product, ^3H-palmitate is hydrophobic.
10 μL assay buffer (100 mM KH2PO4 pH 7.5, 1 mM DTT) (20 μL in blanks) was added to a 384-well white optiplate plate (Perkin Elmer). 0.9 μL test compound (at concentrations of 30 μM, 10 μM, 3 μM, 1 μM, 0.30 μM, 0.10 μM, 0.03 μM and 0.01 μM)/DMSO and 10 μL hFASN enzyme (full length, 300 ng, purified in house) or 10 μL assay buffer was added to the wells. […] The reaction was stopped by adding 20 μL Streptavidin coupled imaging beads (25 mg/ml). After incubation for 30 minutes at room temperature in the dark, the 384 well plate was centrifuged at 1500 rpm for 3 minutes and was measured after at least 24 hrs by the LEADseeker™, measuring emission using a 610±20 nm pass filter.
where mLC and mHC were the means of the low control wells and high control wells on the plate, after manual exclusion of outliers. A plot of Controlmin versus test compound concentration was fitted to a 4-parameter logistic curve using a non-linear least squares regression method.

T1 sequence (P49327 whole entry): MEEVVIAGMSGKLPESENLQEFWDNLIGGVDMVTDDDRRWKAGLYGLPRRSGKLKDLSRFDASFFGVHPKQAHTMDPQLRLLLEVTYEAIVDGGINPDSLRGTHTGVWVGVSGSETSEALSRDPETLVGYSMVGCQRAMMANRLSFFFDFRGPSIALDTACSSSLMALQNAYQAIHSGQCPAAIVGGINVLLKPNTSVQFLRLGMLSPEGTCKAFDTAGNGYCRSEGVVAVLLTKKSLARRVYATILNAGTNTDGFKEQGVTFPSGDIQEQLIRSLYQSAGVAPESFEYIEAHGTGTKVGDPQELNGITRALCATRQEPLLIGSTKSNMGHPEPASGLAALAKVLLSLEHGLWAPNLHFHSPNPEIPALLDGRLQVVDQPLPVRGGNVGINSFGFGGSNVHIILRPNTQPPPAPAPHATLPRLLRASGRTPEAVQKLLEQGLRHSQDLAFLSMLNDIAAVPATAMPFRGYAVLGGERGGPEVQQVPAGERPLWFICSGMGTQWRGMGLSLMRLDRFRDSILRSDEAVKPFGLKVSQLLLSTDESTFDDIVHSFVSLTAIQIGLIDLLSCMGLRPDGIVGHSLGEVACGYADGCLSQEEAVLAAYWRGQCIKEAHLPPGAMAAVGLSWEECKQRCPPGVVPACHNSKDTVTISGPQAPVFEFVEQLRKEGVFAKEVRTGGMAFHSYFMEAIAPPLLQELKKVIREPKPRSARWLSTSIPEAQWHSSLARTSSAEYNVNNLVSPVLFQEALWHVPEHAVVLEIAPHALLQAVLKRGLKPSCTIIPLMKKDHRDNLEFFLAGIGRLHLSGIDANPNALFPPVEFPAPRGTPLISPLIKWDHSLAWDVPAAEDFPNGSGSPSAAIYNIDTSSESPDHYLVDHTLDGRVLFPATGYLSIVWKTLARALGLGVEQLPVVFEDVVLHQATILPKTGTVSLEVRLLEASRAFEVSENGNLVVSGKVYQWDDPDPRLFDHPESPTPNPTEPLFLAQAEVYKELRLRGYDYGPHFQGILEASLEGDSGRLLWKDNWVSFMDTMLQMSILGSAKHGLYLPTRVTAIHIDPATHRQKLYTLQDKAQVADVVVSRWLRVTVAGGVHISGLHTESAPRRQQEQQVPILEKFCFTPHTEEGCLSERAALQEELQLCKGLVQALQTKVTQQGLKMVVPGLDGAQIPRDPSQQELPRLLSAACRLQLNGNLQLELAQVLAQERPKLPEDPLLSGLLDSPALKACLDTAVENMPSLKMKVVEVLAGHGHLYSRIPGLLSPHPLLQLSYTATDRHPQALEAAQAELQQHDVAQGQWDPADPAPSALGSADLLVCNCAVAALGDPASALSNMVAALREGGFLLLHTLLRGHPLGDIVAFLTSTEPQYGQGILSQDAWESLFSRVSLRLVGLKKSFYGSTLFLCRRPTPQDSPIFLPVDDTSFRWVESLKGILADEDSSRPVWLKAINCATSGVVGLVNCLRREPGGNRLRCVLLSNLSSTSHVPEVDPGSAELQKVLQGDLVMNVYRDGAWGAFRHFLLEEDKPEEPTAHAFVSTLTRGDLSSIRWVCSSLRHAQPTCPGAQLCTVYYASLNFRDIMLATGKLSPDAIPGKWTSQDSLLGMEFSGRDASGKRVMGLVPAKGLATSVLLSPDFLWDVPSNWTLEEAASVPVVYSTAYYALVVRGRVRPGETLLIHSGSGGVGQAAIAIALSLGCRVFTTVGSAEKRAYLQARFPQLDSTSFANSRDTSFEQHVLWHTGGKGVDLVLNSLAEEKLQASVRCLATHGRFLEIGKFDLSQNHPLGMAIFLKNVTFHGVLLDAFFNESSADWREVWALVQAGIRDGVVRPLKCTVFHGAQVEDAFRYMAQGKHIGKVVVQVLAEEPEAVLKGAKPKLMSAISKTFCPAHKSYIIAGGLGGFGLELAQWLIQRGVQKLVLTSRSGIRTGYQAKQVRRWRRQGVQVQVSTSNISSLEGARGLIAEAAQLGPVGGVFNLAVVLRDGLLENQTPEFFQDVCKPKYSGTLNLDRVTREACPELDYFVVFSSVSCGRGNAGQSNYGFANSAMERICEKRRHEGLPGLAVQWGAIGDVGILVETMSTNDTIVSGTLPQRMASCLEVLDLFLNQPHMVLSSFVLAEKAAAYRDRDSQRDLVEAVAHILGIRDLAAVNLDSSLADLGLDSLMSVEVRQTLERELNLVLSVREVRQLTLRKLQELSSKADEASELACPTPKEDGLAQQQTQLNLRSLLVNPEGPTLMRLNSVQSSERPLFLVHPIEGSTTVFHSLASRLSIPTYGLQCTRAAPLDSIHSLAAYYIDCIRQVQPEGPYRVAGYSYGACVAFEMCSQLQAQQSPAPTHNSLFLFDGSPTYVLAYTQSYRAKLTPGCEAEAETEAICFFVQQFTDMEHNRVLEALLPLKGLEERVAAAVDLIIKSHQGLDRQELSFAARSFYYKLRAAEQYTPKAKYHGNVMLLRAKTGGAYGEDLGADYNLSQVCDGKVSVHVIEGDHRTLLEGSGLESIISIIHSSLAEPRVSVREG

Structure (SMILES): CC(C)C(=O)N1CCC2(CC1)N=C(c1ccc(-c3ccc4cnccc4c3)cc1)N(C[C@@H]1CCN(C(=O)C3CC3)C1)C2=O [compound 143, 3-{[(3R)-1-(Cyclopropylcarbonyl)pyrrolidin-3-yl]methyl}-2-(4-isoquinolin-6-ylphenyl)-8-(2-methylpropanoyl)-1,3,8-triazaspiro[4.5]dec-1-en-4-one]
- inhibition at 10 µM: 119%
- IC50: 36.3 nM

Structure (SMILES): CC(=O)N1CCC2(CC1)N=C(c1ccc(-c3ccc4cnccc4c3)cc1)N(C[C@@H]1CCN(C(=O)C3CC3)C1)C2=O [compound 144, 8-Acetyl-3-{[(3R)-1-(cyclopropylcarbonyl)pyrrolidin-3-yl]methyl}-2-(4-isoquinolin-6-ylphenyl)-1,3,8-triazaspiro[4.5]dec-1-en-4-one]
- inhibition at 10 µM: 117%
- IC50: 63.1 nM

Structure (SMILES): CN(C)c1cccc(-c2ccc(C3=NC4(CC4)C(=O)N3C[C@@H]3CCN(C(=O)C4CC4)C3)cc2)c1 [compound 145, 6-{[(3R)-1-(Cyclopropylcarbonyl)pyrrolidin-3-yl]methyl}-5-[3′-(dimethylamino)biphenyl-4-yl]-4,6-diazaspiro[2.4]hept-4-en-7-one]
- inhibition at 10 µM: 106%
- IC50: 398 nM

Structure (SMILES): O=C(C1CC1)N1CC[C@@H](CN2C(=O)C3(CC3)N=C2c2ccc(-c3cccc(OC(F)(F)F)c3)cc2)C1 [compound 146, 6-{[(3R)-1-(Cyclopropylcarbonyl)pyrrolidin-3-yl]methyl}-5-[3′-(trifluoromethoxy)biphenyl-4-yl]-4,6-diazaspiro[2.4]hept-4-en-7-one]
- inhibition at 10 µM: 38%
- IC50: > 10000 nM

Structure (SMILES): CC(=O)N1CCC2(CC1)N=C(c1ccc(-c3ccc4[nH]ccc4c3)cc1)N(C[C@@H]1CCN(C(=O)C3CC3)C1)C2=O [compound 147, (R)-2-(4-(1H-Indol-5-yl)phenyl)-8-acetyl-3-((1-(cyclopropanecarbonyl)pyrrolidin-3-yl)methyl)-1,3,8-triazaspiro[4.5]dec-1-en-4-one]
- inhibition at 10 µM: 89.5%
- IC50: 70.8 nM

Structure (SMILES): CC(=O)N1CCC2(CC1)N=C(c1ccc(-c3ccc4[nH]ncc4c3)cc1)N(C[C@@H]1CCN(C(=O)C3CC3)C1)C2=O [compound 148, 8-Acetyl-3-{[(3R)-1-(cyclopropylcarbonyl)pyrrolidin-3-yl]methyl}-2-[4-(1H-indazol-5-yl)phenyl]-1,3,8-triazaspiro[4.5]dec-1-en-4-one]
- inhibition at 10 µM: 105%
- IC50: 302 nM

Structure (SMILES): CC(=O)N1CCC2(CC1)N=C(c1ccc(-c3ccc4occc4c3)cc1)N(C[C@@H]1CCN(C(=O)C3CC3)C1)C2=O [compound 150, 8-Acetyl-2-[4-(1-benzofuran-5-yl)phenyl]-3-{[(3R)-1-(cyclopropylcarbonyl)pyrrolidin-3-yl]methyl}-1,3,8-triazaspiro[4.5]dec-1-en-4-one]
- inhibition at 10 µM: 113%
- IC50: 105 nM

Structure (SMILES): CC(C)C(=O)N1CCC2(CC1)N=C(c1ccc(-c3ccc4occc4c3)cc1)N(C[C@@H]1CCN(C(=O)C3CC3)C1)C2=O [compound 151, 2-[4-(1-Benzofuran-5-yl)phenyl]-3-{[(3R)-1-(cyclopropylcarbonyl)pyrrolidin-3-yl]methyl}-8-(2-methylpropanoyl)-1,3,8-triazaspiro[4.5]dec-1-en-4-one]
- inhibition at 10 µM: 112%
- IC50: 129 nM

Structure (SMILES): O=C(C1CC1)N1CCC2(CC1)N=C(c1ccc(-c3ccc4occc4c3)cc1)N(C[C@@H]1CCN(C(=O)C3CC3)C1)C2=O [compound 152, 2-[4-(1-Benzofuran-5-yl)phenyl]-8-(cyclopropylcarbonyl)-3-{[(3R)-1-(cyclopropylcarbonyl)pyrrolidin-3-yl]methyl}-1,3,8-triazaspiro[4.5]dec-1-en-4-one]
- inhibition at 10 µM: 123%
- IC50: 123 nM

Structure (SMILES): CN(C)CC(=O)N1CCC2(CC1)N=C(c1ccc(-c3ccc4occc4c3)cc1)N(C[C@@H]1CCN(C(=O)C3CC3)C1)C2=O [compound 153, 2-[4-(1-Benzofuran-5-yl)phenyl]-3-{[(3R)-1-(cyclopropylcarbonyl)pyrrolidin-3-yl]methyl}-8-(N,N-dimethylglycyl)-1,3,8-triazaspiro[4.5]dec-1-en-4-one]
- inhibition at 10 µM: 116%
- IC50: 105 nM

Structure (SMILES): CN(C)CC(=O)N1CCC2(CC1)N=C(c1ccc(-c3ccc4cnccc4c3)cc1)N(CC1CN(C(=O)C3CC3)C1)C2=O [compound 154, 3-{[1-(Cyclopropylcarbonyl)azetidin-3-yl]methyl}-8-(N,N-dimethylglycyl)-2-(4-isoquinolin-6-ylphenyl)-1,3,8-triazaspiro[4.5]dec-1-en-4-one]
- inhibition at 10 µM: 109%
- IC50: 269 nM

Structure (SMILES): Cc1cc2cc(-c3ccc(C4=NC5(CCNCC5)C(=O)N4C[C@@H]4CCN(C(=O)C5CC5)C4)cc3)ccc2o1 [compound 155]
- inhibition at 10 µM: 96.5%
- IC50: 776 nM

Structure (SMILES): COc1cc(-c2ccc3occc3c2)ccc1C1=NC2(CCCC2)C(=O)N1C[C@@H]1CCN(C(=O)C2CC2)C1 [compound 156, 2-[4-(1-Benzofuran-5-yl)-2-methoxyphenyl]-3-{[(3R)-1-(cyclopropylcarbonyl)pyrrolidin-3-yl]methyl}-1,3-diazaspiro[4.4]non-1-en-4-one]
- inhibition at 10 µM: 108%
- IC50: 191 nM

Structure (SMILES): COc1cc(-c2ccc3[nH]ccc3c2)ccc1C1=NC2(CCCC2)C(=O)N1C[C@@H]1CCN(C(=O)C2CC2)C1 [compound 157, 3-{[(3R)-1-(Cyclopropylcarbonyl)pyrrolidin-3-yl]methyl}-2-[4-(1H-indol-5-yl)-2-methoxyphenyl]-1,3-diazaspiro[4.4]non-1-en-4-one]
- inhibition at 10 µM: 112%
- IC50: 67.6 nM

Structure (SMILES): O=C(C1CC1)N1CCC(CN2C(=O)C3(CC3)N=C2c2ccc(-c3cccc(F)c3)cc2)CC1 [compound 158, 6-{[1-(Cyclopropylcarbonyl)piperidin-4-yl]methyl}-5-(3′-fluorobiphenyl-4-yl)-4,6-diazaspiro[2.4]hept-4-en-7-one]
- inhibition at 10 µM: 33%
- IC50: > 10000 nM

Structure (SMILES): O=C(C1CC1)N1CC[C@@H](CN2C(=O)C3(CCN(CCO)CC3)N=C2c2ccc(-c3ccc4cnccc4c3)cc2)C1 [compound 159, 3-{[(3R)-1-(Cyclopropylcarbonyl)pyrrolidin-3-yl]methyl}-8-(2-hydroxyethyl)-2-(4-isoquinolin-6-ylphenyl)-1,3,8-triazaspiro[4.5]dec-1-en-4-one]
- inhibition at 10 µM: 116%
- IC50: 79.4 nM

Structure (SMILES): CC(=O)N1CCC2(CC1)N=C(c1ccc(-c3ccc4c(c3)CCN(C(C)=O)C4)cc1)N(C[C@@H]1CCN(C(=O)C3CC3)C1)C2=O [compound 160]
- inhibition at 10 µM: 29.3%
- IC50: > 10000 nM

Structure (SMILES): CC(=O)N1CCC2(CC1)N=C(c1ccc(C3=CC4CCN(C(C)=O)CC4C=C3)cc1)N(C[C@@H]1CCN(C(=O)C3CC3)C1)C2=O (stereo partly drawn) [compound 161, 8-Acetyl-2-[4-(2-acetyl-1,2,3,4,4a,8a-hexahydroisoquinolin-6-yl)phenyl]-3-{[(3R)-1-(cyclopropylcarbonyl)pyrrolidin-3-yl]methyl}-1,3,8-triazaspiro[4.5]dec-1-en-4-one]
- inhibition at 10 µM: 16%
- IC50: > 10000 nM

Structure (SMILES): CC(C)N1CCC2(CC1)N=C(c1ccc(-c3ccc4cnccc4c3)cc1)N(C[C@@H]1CCN(C(=O)C3CC3)C1)C2=O [compound 163]
- inhibition at 10 µM: 110%
- IC50: 229 nM

Structure (SMILES): CN(C)CC(=O)N1CCC2(CC1)N=C(c1ccc(-c3ccc4[nH]ccc4c3)cc1)N(C[C@@H]1CCN(C(=O)C3CC3)C1)C2=O [compound 164, 3-{[(3R)-1-(Cyclopropylcarbonyl)pyrrolidin-3-yl]methyl}-8-(N,N-dimethylflycyl)-2-[4-(1H-indol-5-yl)phenyl]-1,3,8-triazaspiro[4.5]dec-1-en-4-one]
- inhibition at 10 µM: 115%
- IC50: 39.8 nM

Structure (SMILES): CN(C)CC(=O)N1CCC2(CC1)N=C(c1ccc(-c3ccc4[nH]ncc4c3)cc1)N(C[C@@H]1CCN(C(=O)C3CC3)C1)C2=O [compound 165, 3-{[(3R)-1-(Cyclopropylcarbonyl)pyrrolidin-3-yl]methyl}-8-(N,N-dimethylglycyl)-2-[4-(1H-indazol-5-yl)phenyl]-1,3,8-triazaspiro[4.5]dec-1-en-4-one]
- inhibition at 10 µM: 108%
- IC50: 229 nM

Structure (SMILES): CC(C)N1CCC2(CC1)N=C(c1ccc(-c3ccc4occc4c3)cc1)N(CC1CN(C(=O)C3CC3)C1)C2=O [compound 166, 2-[4-(1-Benzofuran-5-yl)phenyl]-3-{[1-(cyclopropylcarbonyl)azetidin-3-yl]methyl}-8-(1-methylethyl)-1,3,8-triazaspiro[4.5]dec-1-en-4-one]
- inhibition at 10 µM: 71.6%
- IC50: 3390 nM

Structure (SMILES): CC(C)N1CCC2(CC1)N=C(c1ccc(-c3ccc4occc4c3)cc1)N(C[C@@H]1CCN(C(=O)C3CC3)C1)C2=O [compound 167, 2-[4-(1-Benzofuran-5-yl)phenyl]-3-{[(3R)-1-(cyclopropylcarbonyl)pyrrolidin-3-yl]methyl}-8-(1-methylethyl)-1,3,8-triazaspiro[4.5]dec-1-en-4-one]
- inhibition at 10 µM: 96.4%
- IC50: 525 nM

Structure (SMILES): O=C(C1CC1)N1CC[C@@H](CN2C(=O)C3(CCN(CCO)CC3)N=C2c2ccc(-c3ccc4occc4c3)cc2)C1 [compound 168, 2-[4-(1-Benzofuran-5-yl)phenyl]-3-{[(3R)-1-(cyclopropylcarbonyl)pyrrolidin-3-yl]methyl}-8-(2-hydroxyethyl)-1,3,8-triazaspiro[4.5]dec-1-en-4-one]
- inhibition at 10 µM: 108%
- IC50: 145 nM
